Results reported in PubChem BioAssay (NCI).
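Five concentrations, 48 hours, 96-well plates. TGI denotes the concentration required for complete inhibition of growth.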

How the values were obtained:
Assay in all cases: NCI tumour cell line growth inhibition, 48 h
[1] = system: COLO 205 colon
[2] = system: MALME-3M melanoma
[3] = system: NCI-H522 lung
[4] = system: NCI-H23 lung
[5] = system: OVCAR-5 ovarian
[6] = system: SK-MEL-28 melanoma
[7] = system: SN12C renal
[8] = system: CAKI-1 renal
[9] = system: HCC-2998 colon
[10] = system: NCI-H460 lung
[11] = system: SF-268 CNS
[12] = system: OVCAR-3 ovarian
[13] = system: M19-MEL melanoma
[14] = system: XF 498 CNS
[15] = system: UACC-257 melanoma
[16] = system: M14 melanoma
[17] = system: OVCAR-8 ovarian
[18] = system: 786-0 renal
[19] = system: SK-OV-3 ovarian
[20] = system: LXFL 529 NSCLC
[21] = system: LOX IMVI melanoma
[22] = system: HOP-62 NSCLC
[23] = system: U251 CNS
[24] = system: SF-295 CNS
[25] = system: SF-539 CNS
[26] = system: SNB-75 CNS
[27] = system: KM20L2 colon
[28] = system: HT29 colon
[29] = system: SW-620 colon
[30] = system: OVCAR-4 ovarian
[31] = system: RXF-631 renal
[32] = system: A549 NSCLC
[33] = system: HCT-116 colon
[34] = system: DLD-1 colon
[35] = system: ACHN renal
[36] = system: IGROV1 ovarian
[37] = system: UACC-62 melanoma
[38] = system: HOP-18 NSCLC
[39] = system: K-562 leukemia
[40] = system: RPMI-8226 leukemia
[41] = system: A498 renal
[42] = system: SNB-19 CNS
[43] = system: DMS 114 small cell lung
[44] = system: EKVX NSCLC
[45] = system: HOP-92 NSCLC
[46] = system: DMS 273 small cell lung
[47] = system: CCRF-CEM leukemia
[48] = system: SNB-78 CNS
[49] = system: MOLT-4 leukemia
[50] = system: UO-31 renal
[51] = system: KM12 colon
[52] = system: RXF 393 renal
[53] = system: HCT-15 colon
[54] = system: NCI-H226 lung
[55] = system: SK-MEL-2 melanoma
[56] = system: SK-MEL-5 melanoma
[57] = system: TK-10 renal
[58] = system: SR leukemia

**Q.** For `CN(C(=O)c1ccc([N+](=O)[O-])cc1)c1ccccc1`, which TGI [1] is on record?
**A.** Its TGI is > 100 µM.

**Q.** And the TGI [2]?
**A.** The TGI was > 100 µM.

**Q.** What about the TGI [3] of the same molecule?
**A.** The TGI was > 100 µM.

**Q.** And the TGI [4]?
**A.** Its TGI is > 100 µM.

**Q.** And the TGI [5]?
**A.** Its TGI is > 100 µM.

**Q.** What about the TGI [6] of the same molecule?
**A.** Its TGI is > 100 µM.

**Q.** What about the TGI [7] of the same molecule?
**A.** Its TGI is > 100 µM.

**Q.** What about the TGI [8] of the same molecule?
**A.** Its TGI is > 100 µM.

**Q.** What about the TGI [9] of the same molecule?
**A.** Its TGI is > 100 µM.

**Q.** And the TGI [10]?
**A.** Its TGI is > 100 µM.

**Q.** What about the TGI [11] of the same molecule?
**A.** The TGI was > 100 µM.

**Q.** What about the TGI [12] of the same molecule?
**A.** The TGI was > 100 µM.

**Q.** And the TGI [13]?
**A.** The TGI was > 100 µM.

**Q.** What about the TGI [14] of the same molecule?
**A.** Its TGI is > 100 µM.

**Q.** And the TGI [15]?
**A.** Its TGI is > 100 µM.

**Q.** And the TGI [16]?
**A.** The TGI was > 100 µM.

**Q.** What about the TGI [17] of the same molecule?
**A.** Its TGI is > 100 µM.

**Q.** What about the TGI [18] of the same molecule?
**A.** Its TGI is > 100 µM.

**Q.** And the TGI [19]?
**A.** Its TGI is > 100 µM.

**Q.** And the TGI [20]?
**A.** Its TGI is > 100 µM.

**Q.** What about the TGI [21] of the same molecule?
**A.** The TGI was > 100 µM.

**Q.** What about the TGI [22] of the same molecule?
**A.** Its TGI is > 100 µM.

**Q.** What about the TGI [23] of the same molecule?
**A.** The TGI was > 100 µM.

**Q.** And the TGI [24]?
**A.** The TGI was > 100 µM.

**Q.** What about the TGI [25] of the same molecule?
**A.** Its TGI is > 100 µM.

**Q.** And the TGI [26]?
**A.** The TGI was > 100 µM.

**Q.** What about the TGI [27] of the same molecule?
**A.** The TGI was > 100 µM.

**Q.** What about the TGI [28] of the same molecule?
**A.** The TGI was > 100 µM.

**Q.** What about the TGI [29] of the same molecule?
**A.** Its TGI is > 100 µM.

**Q.** And the TGI [30]?
**A.** The TGI was > 100 µM.

**Q.** What about the TGI [31] of the same molecule?
**A.** Its TGI is > 100 µM.

**Q.** What about the TGI [32] of the same molecule?
**A.** The TGI was > 100 µM.

**Q.** What about the TGI [33] of the same molecule?
**A.** Its TGI is > 100 µM.

**Q.** What about the TGI [34] of the same molecule?
**A.** Its TGI is > 100 µM.

**Q.** What about the TGI [35] of the same molecule?
**A.** The TGI was > 100 µM.

**Q.** What about the TGI [36] of the same molecule?
**A.** Its TGI is > 100 µM.

**Q.** And the TGI [37]?
**A.** Its TGI is > 10 µM.

**Q.** What about the TGI [38] of the same molecule?
**A.** The TGI was > 100 µM.

**Q.** What about the TGI [39] of the same molecule?
**A.** Its TGI is > 10 µM.

**Q.** What about the TGI [40] of the same molecule?
**A.** Its TGI is > 100 µM.

**Q.** And the TGI [41]?
**A.** The TGI was > 100 µM.

**Q.** And the TGI [42]?
**A.** The TGI was > 100 µM.

**Q.** What about the TGI [43] of the same molecule?
**A.** The TGI was > 10 µM.

**Q.** What about the TGI [44] of the same molecule?
**A.** Its TGI is > 100 µM.

**Q.** What about the TGI [45] of the same molecule?
**A.** The TGI was > 100 µM.

**Q.** What about the TGI [46] of the same molecule?
**A.** Its TGI is > 100 µM.

**Q.** What about the TGI [47] of the same molecule?
**A.** Its TGI is > 100 µM.

**Q.** What about the TGI [48] of the same molecule?
**A.** Its TGI is > 100 µM.

**Q.** What about the TGI [49] of the same molecule?
**A.** Its TGI is > 100 µM.

**Q.** What about the TGI [50] of the same molecule?
**A.** Its TGI is > 100 µM.

**Q.** And the TGI [51]?
**A.** Its TGI is > 100 µM.

**Q.** What about the TGI [52] of the same molecule?
**A.** The TGI was > 100 µM.

**Q.** What about the TGI [53] of the same molecule?
**A.** The TGI was > 100 µM.

**Q.** And the TGI [54]?
**A.** The TGI was > 100 µM.

**Q.** Which TGI [2] does the source give for `CCN1c2ccccc2-c2c3c1cc(C)cc3c1ccccc1[n+]2CC` here?
**A.** Its TGI is 7.73 µM.

**Q.** And the TGI [3]?
**A.** The TGI was 3.52 µM.

**Q.** And the TGI [4]?
**A.** The TGI was 4.08 µM.

**Q.** And the TGI [5]?
**A.** The TGI was 4.1 µM.

**Q.** And the TGI [6]?
**A.** Its TGI is 2.46 µM.

**Q.** And the TGI [7]?
**A.** The TGI was 3.35 µM.

**Q.** And the TGI [8]?
**A.** The TGI was 5.88 µM.

**Q.** What about the TGI [9] of the same molecule?
**A.** Its TGI is 2.11 µM.

**Q.** And the TGI [10]?
**A.** The TGI was 2.73 µM.

**Q.** And the TGI [11]?
**A.** The TGI was 2.04 µM.

**Q.** What about the TGI [12] of the same molecule?
**A.** The TGI was 2.39 µM.

**Q.** What about the TGI [13] of the same molecule?
**A.** Its TGI is 1.27 µM.

**Q.** What about the TGI [15] of the same molecule?
**A.** Its TGI is 1.65 µM.

**Q.** What about the TGI [16] of the same molecule?
**A.** Its TGI is 3.74 µM.

**Q.** What about the TGI [17] of the same molecule?
**A.** Its TGI is 1.86 µM.

**Q.** And the TGI [18]?
**A.** The TGI was 4.22 µM.

**Q.** What about the TGI [19] of the same molecule?
**A.** The TGI was 5.68 µM.

**Q.** And the TGI [20]?
**A.** The TGI was 1.86 µM.

**Q.** What about the TGI [21] of the same molecule?
**A.** The TGI was 1.89 µM.

**Q.** And the TGI [22]?
**A.** The TGI was 5.15 µM.

**Q.** What about the TGI [23] of the same molecule?
**A.** The TGI was 2.68 µM.

**Q.** And the TGI [24]?
**A.** The TGI was 3.21 µM.

**Q.** What about the TGI [25] of the same molecule?
**A.** Its TGI is 2.51 µM.

**Q.** And the TGI [55]?
**A.** Its TGI is 4.29 µM.

**Q.** What about the TGI [56] of the same molecule?
**A.** The TGI was 1.84 µM.

**Q.** And the TGI [26]?
**A.** Its TGI is 2.2 µM.

**Q.** What about the TGI [57] of the same molecule?
**A.** The TGI was 9.66 µM.

**Q.** And the TGI [28]?
**A.** The TGI was 3.92 µM.

**Q.** What about the TGI [29] of the same molecule?
**A.** Its TGI is 6.63 µM.

**Q.** And the TGI [30]?
**A.** The TGI was 5.57 µM.

**Q.** What about the TGI [31] of the same molecule?
**A.** The TGI was 43.4 µM.

**Q.** And the TGI [32]?
**A.** The TGI was 13.8 µM.

**Q.** What about the TGI [33] of the same molecule?
**A.** Its TGI is 3.89 µM.

**Q.** What about the TGI [34] of the same molecule?
**A.** The TGI was 17.8 µM.

**Q.** What about the TGI [35] of the same molecule?
**A.** The TGI was 8.95 µM.

**Q.** What about the TGI [37] of the same molecule?
**A.** The TGI was 2.23 µM.

**Q.** And the TGI [39]?
**A.** The TGI was 2.12 µM.

**Q.** What about the TGI [40] of the same molecule?
**A.** Its TGI is 2.92 µM.

**Q.** And the TGI [41]?
**A.** The TGI was 13.9 µM.

**Q.** What about the TGI [42] of the same molecule?
**A.** The TGI was 3.16 µM.

**Q.** What about the TGI [43] of the same molecule?
**A.** Its TGI is 5.84 µM.

**Q.** And the TGI [46]?
**A.** Its TGI is 1.58 µM.

**Q.** And the TGI [47]?
**A.** The TGI was 2.83 µM.

**Q.** And the TGI [58]?
**A.** The TGI was 5.21 µM.

**Q.** What about the TGI [48] of the same molecule?
**A.** The TGI was 12 µM.

**Q.** And the TGI [49]?
**A.** The TGI was 3.41 µM.

**Q.** What about the TGI [50] of the same molecule?
**A.** The TGI was 20.8 µM.

**Q.** And the TGI [51]?
**A.** Its TGI is 1.41 µM.

**Q.** What about the TGI [52] of the same molecule?
**A.** Its TGI is 9.51 µM.

**Q.** And the TGI [53]?
**A.** Its TGI is 22.6 µM.

**Q.** What about the TGI [54] of the same molecule?
**A.** Its TGI is 3.69 µM.
